Measured values reported in patent US10294202B2, “Pyrrolidinones as herbicides” (FMC Corporation, priority 2013, dated 2019).

How the values were obtained:
barnyardgrass [1] = test: Test B flooded paddy test; assay type: in vivo, Echinochloa crus-galli; conditions: 500 g ai/ha, Flood; scale of 0 to 100 where 0 is no effect and 100 is complete control
Procedure, shortened: (§1)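 Scored visually 0–100 (0 no effect, 100 complete control) versus controls after 13 to 15 greenhouse days. Treatment: compound added to paddy water kept 3 cm above soil, on 2-leaf-stage plants.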

rice = test: Test B flooded paddy test; assay type: in vivo, Oryza sativa; conditions: 500 g ai/ha, Flood; scale of 0 to 100 where 0 is no effect and 100 is complete control
Procedure, shortened: as §1

barnyardgrass [2] = test: Test C pre-/postemergence herbicide test; assay type: in vivo, Echinochloa crus-galli
Procedure, shortened: (§2)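 Compound solutions contained surfactant in a non-phytotoxic solvent. These were sprayed onto pots of loam/sand sown with seeds, and onto young plants (2 to 18 cm, 1- to 4-leaf) in sphagnum peat–vermiculite mix. Visual injury scores (0 none, 100 complete control) were recorded after 13 to 15 days.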

corn [3] = test: Test C pre-/postemergence herbicide test; assay type: in vivo, Zea mays
Procedure, shortened: as §2

nutsedge, yellow = test: Test C pre-/postemergence herbicide test; assay type: in vivo, Cyperus esculentus
Procedure, shortened: as §2

ducksalad = test: Test B flooded paddy test; assay type: in vivo, Heteranthera limosa; conditions: 500 g ai/ha, Flood; scale of 0 to 100 where 0 is no effect and 100 is complete control
Procedure, shortened: as §1

barnyardgrass [4] = test: Test A pre-/postemergence herbicide test; assay type: in vivo, Echinochloa crus-galli
Procedure, shortened: (§3)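 Formulated compound (non-phytotoxic solvent, surfactant) sprayed pre- onto soil of seeded loam/sand pots or post- onto seedlings at 1–2 leaves; ~10 d greenhouse; 0–100 visual control rating versus untreated.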

corn [5] = test: Test A pre-/postemergence herbicide test; assay type: in vivo, Zea mays; conditions: Postemergence
Procedure, shortened: as §3

soybean = test: Test C pre-/postemergence herbicide test; assay type: in vivo, Glycine max
Procedure, shortened: as §2

pigweed = test: Test A pre-/postemergence herbicide test; assay type: in vivo, Amaranthus retroflexus
Procedure, shortened: as §3

oilseed rape = test: Test C pre-/postemergence herbicide test; assay type: in vivo, Brassica napus
Procedure, shortened: as §2

foxtail, giant = test: Test C pre-/postemergence herbicide test; assay type: in vivo, Setaria faberii
Procedure, shortened: as §2

[6] = Postemergence, 31 g ai/ha, scale 0 to 100 (0 no effect, 100 complete control)
[7] = Postemergence, 62 g ai/ha, scale 0 (no effect) to 100 (complete control)
[8] = Postemergence, 125 g ai/ha, scale 0 to 100 (0 no effect, 100 complete control)
[9] = Postemergence, 250 g ai/ha, scale 0 to 100 (0 no effect, 100 complete control)
[10] = Preemergence, 31 g ai/ha, scale 0 to 100, 0 is no effect and 100 is complete control
[11] = Preemergence, 62 g ai/ha, scale 0 to 100 (0 no effect, 100 complete control)
[12] = Preemergence, 125 g ai/ha, scale 0 to 100
[13] = Postemergence, 125 g ai/ha, visual rating on 0 to 100 scale (0 no effect, 100 complete control), approx. 10 days
[14] = Postemergence, 500 g ai/ha, 0 to 100 scale (0 no effect, 100 complete control)
[15] = Preemergence, 125 g ai/ha, 0 to 100 scale where 0 is no effect and 100 is complete control
[16] = Preemergence, 500 g ai/ha, visual rating on 0 to 100 scale (0 no effect, 100 complete control)

Structure (SMILES): O=C1NCC(c2cccc(C(F)(F)F)c2)C1C(=O)Nc1ccc(F)c(F)c1F (stereo not drawn) [Compound 315]
- Plant response rating, Barnyardgrass (barnyardgrass [1]): 70
- Plant response rating, Rice (rice): 15
- Plant response rating, Barnyardgrass (barnyardgrass [2]; [6]): 25
- Plant response rating, Barnyardgrass (barnyardgrass [2]; [7]): 65
- Plant response rating, Barnyardgrass (barnyardgrass [2]; [8]): 70
- Plant response rating, Barnyardgrass (barnyardgrass [2]; [9]): 85
- Barnyardgrass plant response rating (barnyardgrass [2]; [10]): 90
- Barnyardgrass plant response rating (barnyardgrass [2]; [11]): 90
- Plant response rating, Barnyardgrass (barnyardgrass [2]; Preemergence, 125 g ai/ha, scale 0 to 100 (0 no effect, 100 complete control)): 90
- Plant response rating (scale of 0 to 100; 0 is no effect, 100 is complete control), Barnyardgrass (barnyardgrass [2]; Preemergence, 250 g ai/ha): 95
- Plant response rating, Corn (corn [3]; [6]): 0
- Plant response rating, Corn (corn [3]; [7]): 0
- Plant response rating, Corn (corn [3]; [8]): 10
- Plant response rating, Corn (corn [3]; [9]): 60
- Corn plant response rating (corn [3]; [10]): 50
- Corn plant response rating (corn [3]; [11]): 80
- Plant response rating, Corn (corn [3]; [12]): 80
- Plant response rating (scale of 0 to 100), Corn (corn [3]; Preemergence, 250 g ai/ha): 85
- Plant response rating, Nutsedge, Yellow (nutsedge, yellow; [6]): 0
- Plant response rating, Nutsedge, Yellow (nutsedge, yellow; [7]): 0
- Plant response rating, Nutsedge, Yellow (nutsedge, yellow; [8]): 0
- Plant response rating, Nutsedge, Yellow (nutsedge, yellow; [9]): 0
- Nutsedge, Yellow plant response rating (nutsedge, yellow; [10]): 0
- Nutsedge, Yellow plant response rating (nutsedge, yellow; [11]): 0
- Plant response rating, Nutsedge, Yellow (nutsedge, yellow; [12]): 20
- Plant response rating (scale of 0 to 100), Nutsedge, Yellow (nutsedge, yellow; Preemergence, 250 g ai/ha): 20
- Plant response rating, Ducksalad (ducksalad): 100
- Plant response rating, Barnyardgrass (barnyardgrass [4]; [13]): 90
- Plant response rating, Barnyardgrass (barnyardgrass [4]; [14]): 90
- Plant response rating, Barnyardgrass (barnyardgrass [4]; [15]): 90
- Barnyardgrass plant response rating (barnyardgrass [4]; [16]): 90
- Plant response rating, Corn (corn [5]; 125 g ai/ha, visual rating on 0 to 100 scale (0 no effect, 100 complete control), approx. 10 days): 70
- Plant response rating, Corn (corn [5]; 500 g ai/ha, 0 to 100 scale (0 no effect, 100 complete control)): 80
- Plant response rating, Soybean (soybean; [6]): 0
- Plant response rating, Soybean (soybean; [7]): 0
- Plant response rating, Soybean (soybean; [8]): 0
- Plant response rating, Soybean (soybean; [9]): 15
- Soybean plant response rating (soybean; [11]): 0
- Plant response rating, Soybean (soybean; [12]): 0
- Plant response rating (scale of 0 to 100), Soybean (soybean; Preemergence, 250 g ai/ha): 0
- Plant response rating, Pigweed (pigweed; [13]): 30
- Plant response rating, Pigweed (pigweed; [14]): 50
- Plant response rating, Pigweed (pigweed; [15]): 30
- Pigweed plant response rating (pigweed; [16]): 30
- Plant response rating, Oilseed Rape (oilseed rape; [6]): 0
- Plant response rating, Oilseed Rape (oilseed rape; [7]): 0
- Plant response rating, Oilseed Rape (oilseed rape; [8]): 0
- Plant response rating, Oilseed Rape (oilseed rape; [9]): 10
- Oilseed Rape plant response rating (oilseed rape; [10]): 5
- Oilseed Rape plant response rating (oilseed rape; [11]): 30
- Plant response rating, Oilseed Rape (oilseed rape; [12]): 85
- Plant response rating (scale of 0 to 100), Oilseed Rape (oilseed rape; Preemergence, 250 g ai/ha): 80
- Plant response rating, Foxtail, Giant (foxtail, giant; [6]): 0
- Plant response rating, Foxtail, Giant (foxtail, giant; [7]): 40
- Plant response rating, Foxtail, Giant (foxtail, giant; [8]): 85
- Plant response rating, Foxtail, Giant (foxtail, giant; [9]): 85
- Foxtail, Giant plant response rating (foxtail, giant; [10]): 90
- Foxtail, Giant plant response rating (foxtail, giant; [11]): 90
- Plant response rating, Foxtail, Giant (foxtail, giant; [12]): 95
- Plant response rating (scale of 0 to 100), Foxtail, Giant (foxtail, giant; Preemergence, 250 g ai/ha): 98
